Experimental data: ChEMBL document CHEMBL1157539, “Thousands of chemical starting points for antimalarial lead identification” (Nature, 2010)

What follows are molecules tested on Plasmodium falciparum (assay: GSK_TCMDC: Inhibition of Plasmodium falciparum 3D7 in whole erythrocytes, using parasite LDH activity as an index of growth.). Details: Plasmodium falciparum, 3D7.
Assay type: functional, organism-based
With `N#Cc1ccc(N2CCN(Cc3ccc(-c4ccc(-c5nc6ccccc6[nH]5)s4)cc3)CC2)nc1` the XC50 was 1080 nM. With `Cc1ccc(Cc2c[nH]c(NCCSCc3ccc(CN(C)C)s3)nc2=O)cn1` the XC50 was 860 nM. In the case of `O=C(COC(=O)c1cccc(S(=O)(=O)N2CCc3ccccc32)c1)NNC(=O)c1cccs1`, the XC50 was 1250 nM. With `CN(CCN(C)C(=O)NCc1ccccc1)C(=O)NCc1ccccc1` the XC50 was 930 nM. Molecule `Cc1cnc(C(=O)Nc2ccc(-c3cccc(-c4nc5ccccc5[nH]4)c3)cc2)cn1` has an XC50 of 833 nM. `Cc1ccn2cc(-c3ccc(NC(=O)c4ccc(Br)o4)cc3)nc2c1` showed an XC50 of 741 nM. Work on `Fc1ccc(-c2oc(C3CCN(CCc4ccc(-c5noc(=S)[nH]5)cc4)CC3)nc2COCC(F)(F)F)cc1` yielded an XC50 of 418 nM. `CN(CCON1C(=N)N=C(N)NC1(C)C)c1ccccc1` gave an XC50 of 19.4 nM. For `CC(C)Cc1cn(-c2nc(-c3nc4ccccc4[nH]3)cs2)c2ccncc12`, the XC50 was 90 nM. `Nc1ccc(-c2ccc3ccnc(N)c3c2)cn1` gave an XC50 of 353 nM. `COc1ccc(CCNCc2ccc3nc(N)cc(C)c3c2)cc1` was tested, and the XC50 was 214 nM. In the case of `CC1CCc2c(C(=O)Nc3c(F)cc(F)cc3Br)csc2C1` (stereo not drawn), the XC50 was 752 nM. Molecule `CC(C)(CNC(=O)[C@H]1CCCCN1)c1nc(-c2ccc(Cl)c(O)c2)c(-c2ccncc2)[nH]1` has an XC50 of 727 nM. `O=C(/C=C/c1ccc(Cl)c(Cl)c1)N1CCC(CNCc2cccc3cc[nH]c23)CC1` gave an XC50 of 1220 nM. With `CN(C)c1cccc(NC(=O)N[C@H]2N=C(c3ccccc3)c3ccccc3N(CC(=O)N3CCCC3)C2=O)c1` the XC50 was 254 nM. `Cc1cc(C(=O)Nc2ccc3c(c2)CCN3C2CCN(Cc3cccc4cc[nH]c34)C2)no1` (stereo not drawn) gave an XC50 of 189 nM. `Cc1cccc2nc(-c3cccc(-c4ccc(NC(=O)Nc5ccsc5)cc4)c3)[nH]c12` showed an XC50 of 116 nM. `CCN(CC)CCCNc1nccc(N(C)c2ccc(NC(=O)Nc3cc(C(F)(F)F)ccc3F)cc2)n1` showed an XC50 of 1050 nM. Work on `CC(C)COc1ccc(Cl)cc1Cc1ccc(-c2nc3cc(CCN4CCCC4)ccc3[nH]2)o1` yielded an XC50 of 730 nM. Work on `COc1ccc2nccc(N3CCC(NCCNCc4cc5c(cn4)OCCO5)C3)c2n1` (stereo not drawn) yielded an XC50 of 578 nM. Molecule `O=C(Nc1ccc(Oc2ccccc2)cc1)N(CCN1CCCC1)Cc1ccc(-c2ccc(CN3CCNCC3)cc2)cc1` has an XC50 of 892 nM. Work on `C=C(C)CSc1nc2c(c(=O)n1Cc1ccco1)C1(CCCCC1)Cc1ccccc1-2` yielded an XC50 of 997 nM. Molecule `CC1(C)N=C(N)N=C(N)N1c1cccc(Cl)c1` has an XC50 of 37.9 nM. Molecule `CC(C)N1CCC(N(Cc2ccc(-c3ccc(C(F)(F)F)cc3)cc2)C(=O)Cn2c(CCc3cccc(F)c3F)cc(=O)c3c2CCC3)CC1` has an XC50 of 617 nM. Molecule `Cc1[nH]c(C)c(-c2ccc(-c3ccc(OC(F)(F)F)cc3)cc2)c(=O)c1Br` has an XC50 of 38.6 nM. `COc1ccc(Cl)cc1-c1nc(C(=O)NCCN2CCCCC2)c(C(C)C)s1` gave an XC50 of 753 nM. `CCN(CC)CCn1c(=N)n(CC(O)c2ccc(Cl)c(Cl)c2)c2ccccc21` (stereo not drawn) gave an XC50 of 785 nM. In the case of `CC(CN1CCN(C)CC1)C(=O)Nc1ccc(-c2ccc(-c3nc4ccccc4[nH]3)cc2)cc1` (stereo not drawn), the XC50 was 954 nM. With `O=C(Nc1cccc(CN2CCCN(Cc3ncc[nH]3)CC2)c1)c1ccc(-c2ccccc2)cc1` the XC50 was 654 nM. With `CCCC(CNC(=O)c1cc2c(Cl)cc(Cl)cc2[nH]1)CNc1cc(=O)c2ccccc2[nH]1` (stereo not drawn) the XC50 was 903 nM. For `Fc1ccc(C(OCC2CCCN(Cc3cccc4cccnc34)C2)c2ccc(F)cc2)cc1` (stereo not drawn), the XC50 was 703 nM. Molecule `CCCCCCCCCN(CCC)C(=O)[C@@H]1OC(C(=O)OC(c2ccccc2)c2ccccc2)=C[C@H](NC(=O)OC(C)(C)C)[C@H]1NC(C)=O` has an XC50 of 640 nM. Molecule `O=c1ccc(CNc2nc(NCCc3ccccc3)nc3cc(Cl)ccc23)c[nH]1` has an XC50 of 298 nM. For `COc1ccc2ncc(Cl)c(NCC3(O)CCC(NCc4ccc5c(n4)NC(=O)CS5)CC3)c2n1` (stereo not drawn), the XC50 was 597 nM. Molecule `CCCCCCNC(=O)C1Cc2c([nH]c3ccc(C)cc23)C2(CCN(CCc3ccccc3)CC2)N1` (stereo not drawn) has an XC50 of 1270 nM. `COc1cc(NC(=O)c2cccc([N+](=O)[O-])c2)cc(S(=O)(=O)c2ccc(Cl)cc2)c1` showed an XC50 of 1130 nM. Work on `CN1CCN(Cc2ccc(-c3ccc4c(Nc5ccc(Oc6ccccc6)cc5)ccnc4c3)o2)CC1` yielded an XC50 of 177 nM. For `Nc1ncc(-c2ccc(Cl)c(Cl)c2)c(N)n1`, the XC50 was 727 nM.
